Source: ChEMBL document CHEMBL5329217, “Hesperidin Methyl Chalcone reduces extracellular Aβ(25-35) peptide aggregation and fibrillation and also protects Neuro 2a cells from Aβ(25-35) induced neuronal dysfunction” (Bioorg Med Chem, 2023)
The source made the active and inactive calls. The rule behind the calls is not given here.

How the values were obtained:
N2a [1] = assay: (§1) Inhibition of Amyloid beta (25 to 35)-induced macromolecular damage in mouse Neuro2a cells assessed as reduction in protein oxidation by measuring protein carbonyl content at 50 ug/ml pretreated for 2 hrs followed by amyloid beta (25 to 35) addition and measured after 24 hrs per mg protein (reference value: 44.06 +/- 1.02 mmol); assay type: functional; conditions: dose 50 µg/ml; time 26 hrs
N2a [2] = assay: Inhibition of Amyloid beta (25 to 35)-induced apoptosis in mouse Neuro2a cells assessed as Bax/Bcl2 ratio at 50 ug/ml pretreated for 2 hrs followed by amyloid beta (25 to 35) addition and measured after 24 hrs by Western blot analysis (reference value: 1.09 +/- 0.018); assay type: functional; conditions: dose 50 µg/ml; time 26 hrs
N2a [3] = assay: Inhibition of Amyloid beta (25 to 35)-induced oxidative damage in mouse Neuro2a cells assessed as reduction in ROS production by measuring reduction in fluorescence intensity at 50 ug/ml pretreated for 2 hrs followed by amyloid beta (25 to 35) addition and measured after 24 hrs by DCFH-DA staining -based spectrofluorimetric assay; assay type: functional, cell-based; conditions: dose 50.0 µg/ml, time 26.0 hrs
N2a [4] = assay: Neuroprotective activity against Amyloid beta (25 to 35)-induced toxicity in mouse Neuro2a cells assessed as non-apoptotic viable cells at 50 ug/ml pretreated for 2 hrs followed by amyloid beta (25 to 35) addition and measured after 24 hrs by AO/EtBr dual staining based fluorescence microscopy (reference value: 53.4 +/-3.88%); assay type: functional; conditions: dose 50 µg/ml; time 26 hrs
N2a [5] = assay: as §1, with “lipid peroxidation” for “protein oxidation”, “MDA” for “protein carbonyl”, “106.4 +/-1.9 nmol)” for “44.06 +/- 1.02 mmol)”; assay type: functional; conditions: dose 50 µg/ml; time 26 hrs
N2a [6] = assay: Inhibition of Amyloid beta (25 to 35)-induced mitochondrial membrane potential loss in mouse Neuro2a cells at 50 ug/ml pretreated for 2 hrs followed by amyloid beta (25 to 35) addition and measured after 24 hrs by rhodamine 123 staining based fluorescent spectrophotometry; assay type: functional, cell-based; conditions: dose 50.0 µg/ml, time 26.0 hrs
[7] = biological target: Amyloid-beta precursor protein (Homo sapiens) (UniProt P05067); assay: Disaggregation of amyloid beta (25 to 35) (unknown origin) mature fibrils at 50 ug/ml incubated for 1 to 9 days by ThT-based fluorescence microscopic analysis; conditions: dose 50.0 µg/ml, time 1-9 day
Chain of Amyloid-beta precursor protein (Homo sapiens) (P05067 whole entry): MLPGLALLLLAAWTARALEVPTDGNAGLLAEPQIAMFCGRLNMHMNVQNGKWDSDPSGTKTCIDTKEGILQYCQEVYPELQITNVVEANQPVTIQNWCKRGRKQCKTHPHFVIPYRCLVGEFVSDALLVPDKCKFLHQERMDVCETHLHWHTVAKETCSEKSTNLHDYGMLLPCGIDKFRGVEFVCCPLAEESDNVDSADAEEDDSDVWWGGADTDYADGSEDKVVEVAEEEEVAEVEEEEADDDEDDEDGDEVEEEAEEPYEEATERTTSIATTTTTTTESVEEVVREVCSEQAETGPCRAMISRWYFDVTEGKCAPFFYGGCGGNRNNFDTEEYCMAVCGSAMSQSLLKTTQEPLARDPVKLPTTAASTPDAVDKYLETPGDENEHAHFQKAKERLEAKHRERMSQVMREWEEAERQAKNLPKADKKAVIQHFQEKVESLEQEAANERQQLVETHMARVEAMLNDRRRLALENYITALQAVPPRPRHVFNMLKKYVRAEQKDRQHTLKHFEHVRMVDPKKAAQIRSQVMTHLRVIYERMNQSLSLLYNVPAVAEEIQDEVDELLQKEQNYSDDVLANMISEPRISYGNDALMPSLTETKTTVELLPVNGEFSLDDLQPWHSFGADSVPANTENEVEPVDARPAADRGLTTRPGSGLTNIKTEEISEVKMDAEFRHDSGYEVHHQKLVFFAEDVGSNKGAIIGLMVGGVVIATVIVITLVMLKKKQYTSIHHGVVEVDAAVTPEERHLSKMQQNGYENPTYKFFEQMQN

For `COc1cc2c(cc1OC)C(=O)C(CC1CCN(Cc3ccccc3)CC1)C2` (configuration not stated) [DONEPEZIL], the Activity (N2a [1]) was 25.1 nmol/mg, the Ratio (N2a [2]) was 0.57 and the inhibition (N2a [3]) was “Active”. For the same compound, the Activity (N2a [4]) was 79%, the Activity (N2a [5]) was 56.6 nmol and the inhibition (N2a [6]) was “Active”.
For `COc1ccc2c3c1O[C@H]1C[C@@H](O)C=C[C@@]31CCN(C)C2`, the Activity [7] was “Active”.
